Measurements as given in patent US11426381B2, “Lipoic acid choline ester compositions and methods of use” (NOVARTIS AG, priority 2014, dated 2022).

Assays:
mouse lenses (C57BL/6J) = test: In vitro mouse lens elasticity (coverslip method); conditions: eight month old mouse lenses, 12 hours incubation
Experimental: (§1) In vitro test: Eight month old mouse lenses (C57BL/6J) were incubated for 12 hours in medium supplemented with selected levels (0-500 μM) of lipoic acid (LA). Lens elasticity was measured using the coverslip method known. After elasticity measurements, lenses were homogenized in a dissociation medium containing alkylating agent 1 (free SH modification). The homogenate was filtered and the rinsed, resuspended, retentate was treated with reducing agent (TCEP) and alkylating agent 2 (S-S SHs modified). After filtration and rinses, the levels of alkylated SH groups in retentate 2 was determined. Bovine serum albumin was the positive control for the sulfhydryl analysis.

lens protein disulfides = test: In vitro mouse lens protein disulfide analysis; conditions: eight month old mouse lenses, 12 hours incubation
Experimental: as §1

[1] = Stability of LACE chloride in propylene glycol (HPLC potency); format: physicochemical; conditions: 1.0% in propylene glycol
Experimental: The HPLC method to analyze LACE Chloride used a Phenomenex Luna CN column with a 5 um particle size, 100 A pore size, 2.0 mm inner diameter, and 50 mm length (PN: 00B-4255-B0). The mobile phase consisted of 50% of 0.1 M Sodium Acetate and 50% Acetonitrile. The flow rate was 1.0 mL/min, the detection wavelength was 225 nm, the column temperature was 40° C., the injection volume was 20 uL, and the run time was 50 minutes. The working LACE chloride concentration was 0.1 mg/mL and plastic HPLC vials were used for the analysis.
A solution of LACE chloride in propylene glycol was prepared to determine its stability. A solution of 1.0% LACE chloride in propylene glycol was prepared and stored at −20° C. (ambient RH), 5° C. (ambient RH), and 25° C. (40% RH). The solutions were tested for LACE chloride potency after storage for 3 months.
In these samples, HPLC analysis (using the method described in Example 2) a peak with relative retention time (RRT) of approximately 0.73. […] No additional peaks are detected. The peak at 0.73 RRT is not detected in the LACE chloride solutions in citrate buffer.

[2] = Stability of LACE in neat glycerol; format: physicochemical; conditions: mixed in neat glycerol, 80° C. for 8 hours
Experimental: Lipoic acid choline ester was mixed in neat glycerol (no water) with brief heating to 80° C. for 8 hours. High concentrations of lipoic acid choline ester in a final clear solution were found. The final clear solution is stable.

[3] = system: New Zealand white rabbits; test: Draize test for eye drop ocular safety; format: in vivo, rabbit; conditions: EV06 3%-5%
Experimental: Safety of the EV06 was evaluated by the Draize test to evaluate its use at concentrations as high as 5%. The Draize Test is an acute toxicity test devised in 1944 by Food and Drug Administration (FDA) toxicologists John H. Draize and Jacob M. Spines. Initially used for testing cosmetics, the procedure involves applying 0.5 mL or 0.5 g of a test substance to the eye or skin of a restrained, conscious animal, and then leaving it for set amount of time before rinsing it out and recording its effects. Corneal, iris, and conjunctival responses were evaluated using the scale described by Draize et al., J. Pharmacol. & Exp. Therapeutics, 82:377-390 (1944)]. Because of the importance of the cornea to vision, 73% of the Draize score is based on corneal damage. A normal score was 0, increasing amounts of damage result in a higher score, with the maximum score possible being 110. A Draize score was computed at each observation time by averaging the total scores of all rabbits tested. Observations were made and recorded 24, 48, and 72 hours after treatment.
This test consists of instilling 30 to 50 μL of the product into one eye of 6 New Zealand white rabbits and monitoring to observe any abnormal clinical signs such as redness of conjunctiva, swelling, or increased blinking which may indicate irritation.

[4] = Toxicokinetics (plasma levels) in GLP rabbit study; format: in vivo; conditions: rabbits; topical DIOPTIN three times daily
Experimental: Screening studies were conducted to determine the highest tolerated concentration when applied topically to rabbit eyes, in conjunction with bioanalysis of corneal, aqueous humor, and lens concentrations of EV06 and its metabolites. In a GLP rabbit study, animals were treated with topical 0, 1, 3 or 4% DIOPTIN™ (lipoic acid choline ester) solution three times daily for 90 consecutive days. Slit-lamp exams and fundoscopy were performed at pre-dose baseline and after 1, 30, and 90 days of dosing. Daily clinical observations, food consumption, body weights, clinical pathology, and toxicokinetics were performed. Full necropsy and ocular histopathology were also conducted.

[5] = Corneal penetration and ocular pharmacokinetics in rabbits (HPLC-ESI/MS/MS); format: in vivo, rabbit
Experimental: Esters of lipoic acid were evaluated in rabbits for corneal penetration. Rabbits were also used to examine the metabolism, absorption, and distribution of LACE (LA prodrug) using HPLC-ESI/MS/MS (LOD>2 ng/ml).

## O=C(O)CCCCC1CCSS1 (centres unmarked) [LA, lipoic acid]
Mouse lenses (C57BL/6J)
  concentration of maximal effect on lens elasticity: 100 µM
Mouse lenses (C57BL/6J); 0-500 μM LA, read-out: [LA]50 for increase in lens elasticity
  EC50: 50 ± 10 µM
Lens protein disulfides
  concentration of maximal effect on lens protein disulfides: 100 µM
Lens protein disulfides; 0-500 μM LA, read-out: [LA]50 for decrease in lens protein disulfides
  EC50: 50 ± 10 µM

## C[N+](C)(C)CCOC(=O)CCCC[C@@H]1CCSS1.[Cl-] [LACE chloride, lipoic acid choline ester chloride]
[1]; 3 months storage at 5° C. and 25° C.
  stability of LACE chloride in propylene glycol: not stable
[1]; stored at room temperature, 3 months
  conversion to peak at RRT approximately 0.73: completely converted

## C[N+](C)(C)CCOC(=O)CCCC[C@@H]1CCSS1 [LACE, lipoic acid choline ester]
[2]
  stability of clear solution in neat glycerol: stable
[3]; 30 to 50 μL into one eye, scale 0 to 110
  Draize Rabbit Eye test score: 2.0+/−0.6
[3]; New Zealand white rabbits
  Draize test classification: not corrosive or irritating
[4]
  Plasma levels of EV06: at or below the limits of detection
[5]
  corneal penetration compared with lipoic acid: improve penetration over lipoic acid
